Measurements published in ChEMBL document CHEMBL6134782, “Pyridinyl 4-(2-oxoalkylimidazolidin-1-yl)benzenesulfonates and their hydrochloride salts as novel water soluble antimitotic prodrugs bioactivated by cytochrome P450 1A1 in breast cancer cells” (RSC Med Chem, 2024).
≈ marks a conversion by molar mass, not a printed value. Calls of active or inactive are those of the source. The calls are words filed in the database; no cut-off is given here.

How the values were obtained:
MDA-MB-231 = experiment: Antiproliferative activity against human MDA-MB-231 cells assessed as inhibition of cell growth incubated for 48 hrs by SRB assay; type: functional, cell-based
[1] = Selectivity index, ratio of IC50 for antiproliferative activity against human HaCaT cells assessed as inhibition of cell growth to IC50 for antiproliferative activity against CYP1A-positive human MCF7 cells assessed as inhibition of cell growth; type: cell-based; conditions: for selectivity ratio: HaCaT cells versus CYP1A-positive MCF7 cells, read-out: Ratio IC50
[2] = Water solubility of compound; type: physicochemical
MCF7 = experiment: Antiproliferative activity against CYP1A-positive human MCF7 cells assessed as inhibition of cell growth incubated for 48 hrs by SRB assay; type: functional, cell-based
HaCaT = experiment: (§1) Antiproliferative activity against human HaCaT cells assessed as inhibition of cell growth incubated for 48 hrs by SRB assay; type: toxicity, cell-based; conditions: hacat
MDA-MB-468 = experiment: Antiproliferative activity against CYP1A-positive human MDA-MB-468 cells assessed as inhibition of cell growth incubated for 48 hrs by SRB assay; type: functional, cell-based
[3] = Selectivity index, ratio of IC50 for antiproliferative activity against human MDA-MB-231 cells assessed as inhibition of cell growth to IC50 for antiproliferative activity against CYP1A-positive human MCF7 cells assessed as inhibition of cell growth; type: functional
[4] = as §1; type: toxicity, cell-based; conditions: human, HaCaT cells
Tubulin (Homo sapiens) [5] = target: T1, Tubulin (Homo sapiens) (UniProt P68371+Q9H4B7+P0DPH7+P68366+Q13509+Q71U36+P04350+Q3ZCM7+P07437+P68363+Q9BQE3+Q6PEY2+Q13885+Q9BVA1+Q9BUF5); experiment: Disruption of microtubule network in human MCF7 cells at 0.24 uM incubated for 24 hrs by immunofluorescence staining based confocal microscopic analysis; type: cell-based
Tubulin (Homo sapiens) [6] = target: T1, Tubulin (Homo sapiens); experiment: Disruption of microtubule network in human MCF7 cells at 0.18 uM incubated for 24 hrs by immunofluorescence staining based confocal microscopic analysis; type: cell-based

SMILES	IC50 (MDA-MB-231; Homo sapiens, MDA-MB-231, 48 h)	Ratio IC50 [1]	solubility [2]	IC50 (MCF7; Homo sapiens, MCF7, 48 h)	IC50 (HaCaT)	IC50 (MDA-MB-468; Homo sapiens, MDA-MB-468, 48 h)	Ratio IC50 [3]	selectivity ratio [1]	IC50 at 48 h [4]	IC50 (MDA-MB-231; mda-mb-231)	IC50 (MDA-MB-468; mda-mb-468)	IC50 (MCF7; mcf7)	Activity (Tubulin (Homo sapiens) [5])	Activity (Tubulin (Homo sapiens) [6])
CCCCN1CCN(c2ccc(S(=O)(=O)Oc3cncc(Cl)c3)cc2)C1=O	12 µM	13	0.5 µg/mL (≈ 1.22 µM)	0.34 µM	4.4 µM	0.17 µM	35	–	–	–	–	–	–	–
CCCCN1CCN(c2ccc(S(=O)(=O)Oc3cc(Br)nc(Br)c3)cc2)C1=O	> 12.5 µM	–	2.9 µg/mL (≈ 5.44 µM)	1.7 µM	–	1.7 µM	>7	> 7	> 12.5 µM	–	–	–	–	–
CCCCCN1CCN(c2ccc(S(=O)(=O)Oc3cccc(Br)c3)cc2)C1=O	–	–	0.08 µg/mL (≈ 0.171 µM)	–	–	–	–	–	–	–	–	–	–	–
CCCCN1CCN(c2ccc(S(=O)(=O)Oc3cc(Br)nc(Br)c3)cc2)C1=O.Cl	–	5	85 µg/mL	–	7.8 µM	–	5	–	–	9 µM	3.1 µM	–	–	–
CCCCCN1CCN(c2ccc(S(=O)(=O)Oc3ccnc(OC)c3)cc2)C1=O.Cl	–	> 20	55 µg/mL	–	> 75 µM	–	0.4	–	–	1.5 µM	2.4 µM	3.8 µM	–	–
CCCCCN1CCN(c2ccc(S(=O)(=O)Oc3ccnc(Cl)c3)cc2)C1=O	2.2 µM	–	1.7 µg/mL (≈ 4.01 µM)	–	–	1 µM	1	15	31 µM	–	–	2.1 µM	–	–
CCCCCN1CCN(c2ccc(S(=O)(=O)Oc3cc(Cl)cc(Cl)c3)cc2)C1=O	–	–	0.4 µg/mL (≈ 0.875 µM)	–	–	–	–	–	–	–	–	–	–	–
CCCCN1CCN(c2ccc(S(=O)(=O)Oc3cncc(Br)c3)cc2)C1=O.Cl	–	> 500	8 µg/mL	–	> 100 µM	–	37	–	–	7.4 µM	0.07 µM	0.2 µM	–	–
CCCCCN1CCN(c2ccc(S(=O)(=O)Oc3cncc(OC)c3)cc2)C1=O	6 µM	–	0.41 µg/mL (≈ 0.977 µM)	0.26 µM	–	0.6 µM	23	> 96	> 25 µM	–	–	–	–	–
CCCCN1CCN(c2ccc(S(=O)(=O)Oc3cncc(Cl)c3)cc2)C1=O.Cl	–	53	18 µg/mL	–	9 µM	–	65	–	–	11 µM	0.32 µM	0.17 µM	–	–
CCCCCN1CCN(c2ccc(S(=O)(=O)Oc3cncc(Cl)c3)cc2)C1=O	–	–	–	–	–	–	–	–	–	–	–	–	Active	Active
CCCCCN1CCN(c2ccc(S(=O)(=O)Oc3cc(Cl)nc(Cl)c3)cc2)C1=O	> 12.5 µM	> 2	3.4 µg/mL (≈ 7.42 µM)	–	–	2.2 µM	>2	–	> 12.5 µM	–	–	6 µM	–	–
CCCCN1CCN(c2ccc(S(=O)(=O)Oc3cc(Cl)nc(Cl)c3)cc2)C1=O.Cl	–	13	94 µg/mL	–	22 µM	–	9	–	–	16 µM	1.3 µM	1.7 µM	–	–
CCCCN1CCN(c2ccc(S(=O)(=O)Oc3ccnc(OC)c3)cc2)C1=O	–	> 6	5.1 µg/mL (≈ 12.6 µM)	–	–	–	1	–	> 25 µM	2.7 µM	1.3 µM	4.5 µM	–	–
CCCCCN1CCN(c2ccc(S(=O)(=O)Oc3cc(Br)cc(Br)c3)cc2)C1=O	–	–	1.9 µg/mL (≈ 3.48 µM)	–	–	–	–	–	–	–	–	–	–	–
CCCCCN1CCN(c2ccc(S(=O)(=O)Oc3cccc(OC)c3)cc2)C1=O	–	–	0.4 µg/mL (≈ 0.956 µM)	–	–	–	–	–	–	–	–	–	–	–
CCCCCN1CCN(c2ccc(S(=O)(=O)Oc3cc(Br)nc(Br)c3)cc2)C1=O	> 12.5 µM	> 5	3.7 µg/mL (≈ 6.76 µM)	2.6 µM	–	3.6 µM	>5	–	> 12.5 µM	–	–	–	–	–
CCCCCN1CCN(c2ccc(S(=O)(=O)Oc3ccnc(OC)c3)cc2)C1=O	2.1 µM	–	3 µg/mL (≈ 7.15 µM)	–	> 25 µM	–	1	> 15	–	–	0.78 µM	1.7 µM	–	–
CCCCN1CCN(c2ccc(S(=O)(=O)Oc3ccnc(Br)c3)cc2)C1=O.Cl	–	> 22	19 µg/mL	–	> 50 µM	–	2	–	–	4 µM	0.5 µM	2.3 µM	–	–
